# From patent publication US20110178015A1, “METHODS OF TREATMENT USING BIASED LIGANDS FOR RECEPTORS SUCH AS THE PTH RECEPTOR” (priority 2007, published 2011)
# “Also recorded” adds a separate entry of the source.
# Tests used:
# endogenous PTH1R = molecular target: T1, endogenous PTH1R (Mus musculus, UniProt P41593); assay: Gq/11 PI hydrolysis in POB cultures; type: cell-based, mice; settings: data not shown
# T1 construct: stimulation of endogenous PTH1R in primary murine osteoblasts (POB); endogenous in cells; host or cells: primary osteoblasts (POB) from WT and β-arrestin 2−/− C57BL/6 mice
# T1 sequence (P41593 27-591): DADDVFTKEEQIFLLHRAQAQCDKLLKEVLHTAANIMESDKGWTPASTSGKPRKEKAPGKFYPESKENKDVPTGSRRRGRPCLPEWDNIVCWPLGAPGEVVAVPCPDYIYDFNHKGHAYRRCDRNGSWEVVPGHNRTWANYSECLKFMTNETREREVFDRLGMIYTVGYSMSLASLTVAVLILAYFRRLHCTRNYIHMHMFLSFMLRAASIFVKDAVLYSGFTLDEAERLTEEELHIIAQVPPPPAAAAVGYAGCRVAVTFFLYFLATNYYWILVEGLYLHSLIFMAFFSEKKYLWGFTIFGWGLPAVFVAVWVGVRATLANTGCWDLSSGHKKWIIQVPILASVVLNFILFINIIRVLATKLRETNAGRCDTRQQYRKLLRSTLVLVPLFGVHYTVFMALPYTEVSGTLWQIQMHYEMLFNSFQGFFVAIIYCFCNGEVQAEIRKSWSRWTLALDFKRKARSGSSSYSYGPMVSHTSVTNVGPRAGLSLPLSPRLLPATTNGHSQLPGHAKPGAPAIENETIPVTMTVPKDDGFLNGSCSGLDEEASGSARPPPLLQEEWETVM
# ERK1/2 = ERK1/2 MAP kinase activation (phosphorylation) in primary osteoblasts; type: cell-based, mice; settings: 5 min, 100 nM PTH(1-34) or 1 μM PTH-βarr; for ERK1/2 activation: β-arrestin 2−/− POB; for ERK1/2 phosphorylation: WT POB
# Protocol: FIG. 2 PTH-βarr stimulates β-arrestin mediated ERK1/2 activation. PTH-βarr stimulated ERK1/2 activation, was assessed in POBs isolated from β-arrestin 2−/− and WT C57BL/6 mice. POBs were treated with 100 nM PTH(1-34) (PTH) or 1 μM PTH-βarr for 5 min. […] The effect of PTH-barr stimulation on ERK1/2 activation in the WT obs was absent in the β-arrestin 2−/− obs. Values presented are the fold ERK1/2 phosphorylation over non-stimulated controls. Data represent the mean±SEM from four independent experiments. (**, P<0.01 compared with the non-stimulated WT POBs; ††, P<0.01 compared with the non-stimulated β-arrestin 2−/− POBs).
# PTH(1-34) and PTH-βarr stimulated ERK1/2 MAP kinase activation was assessed in WT and β-arrestin 2−/− POB after treatment for 5 min with 100 nM PTH(1-34) or 1 μM PTH-βarr (FIG. 1b).
# [1] = system: WT and β-arrestin 2−/− mice; assay: Quantitative microCT of the lumbar spine (trabecular bone); type: in vivo; settings: for percent increase in Tb bone density: vs vehicle, 8 weeks
# Excerpt: FIG. 4. β-arrestin 2 dependent signaling contributes to increases in trabecular bone but not cortical bone. Quantitative microCT of the lumbar spine was used to determine the effect vehicle, PTH (1-34) (PTH), or PTH-barr on (a) trabecular bone (Tb) density (BV/TV), (b) Tb thickness and (c) Tb number in WT and β-arrestin 2−/− mice after 8 wks of treatment. PTH and PTH-βarr increased tb density, tb thickness, and tb number in WT treated animals. The effects of PTH-βarr were absent in the β-arrestin −/− animals consistant with a b-arrestin mediated mechanism of anabolic bone formation. Data represent the mean±SEM of at least 7 independent mouse measurements. (***, P<0.001; **, P<0.01; *, P<0.05 compared with vehicle treated WT mice; if, P<0.01; t, P<0.05 compared with vehicle treated β-arrestin 2−/− mice).
# Quantitative microCT (qCT) measurements of the lumbar spine were acquired from WT and β-arrestin 2−/− mice after 8 weeks of treatment with vehicle, PTH(1-34), or PTH-βarr. There was no significant difference in the overall trabecular bone density (BV/TV) between vehicle treated WT and β-arrestin 2−/− mice (FIG. 3A). […] These differences in trabecular bone architecture in sham treated animals reflect two potential contributing processes 1) the loss of β-arrestin mediated signaling and 2) the exaggeration of Gs signaling due to the loss of β-arrestin desensitization.
# [2] = system: WT and β-arrestin 2−/− mice; assay: qCT of the midfemoral shaft (cortical bone); type: in vivo; settings: for femoral periosteal circumference / midshaft cortical thickness: WT mice; for femoral periosteal circumference / midshaft cortical thickness / cortical thickness / periosteal circumference: 8 wks; for endosteal bone surfaces: WT or β-arrestin−/− mice, data not shown; for cortical thickness / periosteal circumference: β-arrestin 2−/− mice
# Excerpt: Finally, the effects of PTH(1-34) and PTH-βarr on cortical bone were examined by qCT of the midfemoral shaft (FIGS. 3D and E). […] However the β-arrestin 2−/− mice had greater midshaft cortical thickness than vehicle treated WT mice. […] The biased agonist, PTH-βarr had no effect on these cortical indices in WT mice.
# [3] = system: WT and β-arrestin 2−/− mice; assay: Quantitative histomorphometry of lumbar spine sections; type: in vivo; settings: for osteoblast surface vs vehicle / osteoclast surface (osteoclast recruitment) / osteoid surface vs vehicle: WT mice, 8 wks, lumbar spine sections
# Excerpt: Dynamic histomorphometric data were consistent with the qCT of trabecular bone morphology. […] As expected there was an increase in osteoclast surface in the PTH (1-34) treated animals.
# [4] = system: WT and β-arrestin 2−/− mice; assay: Serum osteocalcin, marker of bone formation; type: in vivo; settings: 4 weeks of treatment
# Protocol: FIG. 5. PTH-βarr increases serum osteocalcin and has no effect on urine Deoxypyridinoline (DPD) excretion. (a) Serum osteocalcin, a biochemical marker of bone formation was measured in WT and β-arrestin 2−/− mice after 4 weeks of treatment with vehicle, PTH (1-34) (PTH) or PTH-βarr. […] There was no increase in serum osteocalcin in the arrestin 2−/− mice treated with PTH-βarr compared to placebo. […] (b) 24 hour urine DPD, a marker of bone degradation and bone resorption, was also measured in WT and β-arrestin 2−/− mice after 4 weeks of treatment with vehicle, PTH or PTH-βarr. […] Data represent the mean±SEM of at least 7 independent mouse measurements. (***, P<0.001; *, P<0.05; compared with vehicle treated WT mice; †††, P<0.001; ††, P<0.01 compared with vehicle treated β-arrestin 2−/− mice).
# To delineate the cellular mechanisms contributing to the metabolic effects of PTH(1-34) and PTH-βarr administration in WT and β-arrestin 2−/− mice, serum and urine markers of bone turnover were assessed.
# [5] = WT mice, 8 weeks of daily treatment
# [6] = β-arrestin 2−/− mice, 8 weeks of daily treatment
# [7] = WT mice, 8 weeks of daily treatment, listed as PTH
Substance,Gq/11 PI hydrolysis (endogenous PTH1R),ERK1/2 activation (ERK1/2),"lumbar spine trabecular bone density (BV/TV) vs vehicle [1, 5]","trabecular number vs vehicle [1, 5]","trabecular thickness vs vehicle [1, 5]",femoral periosteal circumference [2],midshaft cortical thickness [2],endosteal bone surfaces [2],cortical thickness [2],periosteal circumference [2],osteoblast surface vs vehicle [3],osteoclast surface (osteoclast recruitment) [3],osteoid surface vs vehicle [3],serum osteocalcin vs vehicle ([4]; WT mice),serum osteocalcin vs vehicle ([4]; β-arrestin 2−/− mice),other results
"(D-Trp12, Tyr34)-PTH(7-34) [PTH-βarr]",did not activate,failed to activate ERK1/2,increased; also recorded: significant increase,increased; also recorded: significant increases,increased; also recorded: significant increases,no effect,no effect,no significant effects,significantly decreased,significantly decreased,increased,no effect,increased,significantly increased,no increase; also recorded: no significant change,"ERK1/2 activation (ERK1/2; listed as PTH-barr): absent; trabecular number vs vehicle [1, 6]: absent"
PTH(1-34) [reference compound],did not activate,responded to PTH(1-34) much as WT POB,significantly increased,significant increases,significant increases,increased,increased,no significant effects,no significant effect,no significant effect,increased,increase,increased,significantly increased,increased,"ERK1/2 phosphorylation (ERK1/2): approximately 3 fold over basal; ERK1/2 phosphorylation (ERK1/2; listed as PTH): robustly activated; lumbar spine trabecular bone density (BV/TV) vs vehicle [1, 7]: increased; trabecular number vs vehicle [1, 7]: increased; trabecular thickness vs vehicle [1, 7]: increased; percent increase in Tb bone density ([1]; WT mice): 38%; trabecular bone density (BV/TV) vs vehicle [1, 6]: net increase; trabecular thickness vs vehicle [1, 6]: significant increases; percent increase in Tb bone density ([1]; β-arrestin 2−/− mice): 17%; osteoclast formation ([3]; in the absence of β-arrestin 2): accelerates; serum osteocalcin vs vehicle ([4]; WT mice, listed as PTH): significantly increase"
